Like-named read-outs stand apart in the source and are kept apart here. Blank lines part the entries; values can stand above or below the compound they belong to.
Legend:
KRAS G12C = KRAS G12C (Homo sapiens, UniProt P01116+P62937, G12C); assay: Disruption of BRAF RBD interaction with K-Ras (FRET / MOA assay); type: biochemical; details: read-out: KRAS G12C FRET data IC50
Method: (§1) Compound is present in plate wells as a 10-point 3-fold dilution series starting at a final concentration of 30 μM. […] Compounds that facilitate disruption of a Ras:RAF complex are identified as those eliciting a decrease in the TR-FRET ratio relative to DMSO control wells.
(§2) Note—The following protocol describes a procedure for monitoring disruption of K-Ras G12C (GMP-PNP) binding to BRAF^RBD by a compound of the invention. This protocol may also be executed substituting other Ras proteins or nucleotides.
(§3) The purpose of this biochemical assay was to measure the ability of test compounds to facilitate ternary complex formation between a nucleotide-loaded K-Ras isoform and Cyclophilin A; the resulting ternary complex disrupts binding to a BRAF^RBD construct, inhibiting K-Ras signaling through a RAF effector. Data is reported as IC50 values.
(§4) Compound was present in plate wells as a 10-point 3-fold dilution series starting at a final concentration of 30 μM. […] Compounds that facilitate disruption of a K-Ras:RAF complex were identified as those eliciting a decrease in the TR-FRET ratio relative to DMSO control wells.

NRAS G12C = NRAS G12C (Homo sapiens, UniProt P01111+P62937, G12C); assay: Disruption of BRAF RBD interaction with Ras (FRET / MOA assay); type: biochemical
Procedure, shortened: (§5)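 Test compounds drive ternary complex formation between nucleotide-loaded Ras and Cyclophilin A, which disrupts Ras binding to a BRAF^RBD construct. Compound was tested as a 10-point 3-fold dilution series from 30 μM final. IC50 was derived from the decrease in TR-FRET ratio relative to DMSO control wells.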

KRAS G13C = KRAS G13C (Homo sapiens, UniProt P01116+P62937, G13C); assay: Disruption of BRAF RBD interaction with K-Ras (FRET / MOA assay); type: biochemical; details: read-out: KRAS G13C FRET data IC50
Method: as §1, §2, §3, §4

Capan-1 (K-Ras G12V) = assay: CellTiter-Glo Cell Viability Assay; type: cell-based; details: Homo sapiens, 120 h; Capan-1, 5-day treatment
Method: (§6) Determination of Cell Viability in RAS Mutant Cancer Cell Lines
(§7) Protocol: CellTiter-Glo® Cell Viability Assay
(§8) Note—The following protocol describes a procedure for monitoring cell viability of K-Ras mutant cancer cell lines in response to a compound of the invention. Other RAS isoforms may be employed, though the number of cells to be seeded will vary based on cell line used.
(§9) Test compounds (132.5 nl) were directly dispensed into the assay plates containing cells. […] On day 5, assay plates and their contents were equilibrated to room temperature for approximately 30 minutes. […] Luminescence was measured using the PerkinElmer Enspire. Data were normalized by the following: (Sample signal/Avg. DMSO)*100. The data were fit using a four-parameter logistic fit.

NCI-H358 (K-Ras G12C) = assay: CellTiter-Glo Cell Viability Assay; type: cell-based; details: Homo sapiens, NCI-H358, 120 h; H358, 5-day treatment
Method: as §6, §7, §8, §9

NRAS Q61R = NRAS Q61R (Homo sapiens, UniProt P01111+P62937, Q61R); assay: Disruption of BRAF RBD interaction with Ras (FRET / MOA assay); type: biochemical; details: read-out: NRAS Q61R FRET data IC50
Procedure, shortened: as §5

NRAS Q61K = NRAS Q61K (Homo sapiens, UniProt P01111+P62937, Q61K); assay: as above; type: biochemical; details: read-out: NRAS Q61K FRET data IC50
Procedure, shortened: as §5

SWi573 = details: cited from earlier work
[1] = test system: Capan-2 KRASG12V/wt xenograft model; assay: Tumor growth in Capan-2 CDX model; type: in vivo, BALB/c nude mice; details: Compound A 100 mg/kg po bid daily, RMC-4550 20 mg/kg po every other day
Method: Capan-2 cells were implanted in 50% Matrigel. Animals were randomized and treatment was initiated at average tumor volume of ˜180 mm3. […] Ns=no significance; ***p<0.001 by one-way ANOVA.
Once tumors reached an average size of ˜180 mm3, mice were randomized to treatment groups to start the administration of test articles or vehicle. […] Body weight and tumor volume (using calipers) was measured twice weekly until study endpoints.

KRAS G12V = KRAS G12V (Homo sapiens, UniProt P01116+P62937, G12V); assay: Disruption of BRAF RBD interaction with K-Ras (FRET / MOA assay); type: biochemical; details: read-out: KRAS G12V FRET data IC50
Method: as §1, §2, §3, §4

NRAS Q61R, sequence (P01111 whole entry Q61R): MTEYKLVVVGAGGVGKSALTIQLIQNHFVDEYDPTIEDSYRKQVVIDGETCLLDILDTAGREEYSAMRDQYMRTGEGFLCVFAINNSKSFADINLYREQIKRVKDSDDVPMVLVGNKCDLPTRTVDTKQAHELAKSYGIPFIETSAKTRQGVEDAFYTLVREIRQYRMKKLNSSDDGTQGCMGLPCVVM
NRAS Q61R, sequence (P62937 whole entry): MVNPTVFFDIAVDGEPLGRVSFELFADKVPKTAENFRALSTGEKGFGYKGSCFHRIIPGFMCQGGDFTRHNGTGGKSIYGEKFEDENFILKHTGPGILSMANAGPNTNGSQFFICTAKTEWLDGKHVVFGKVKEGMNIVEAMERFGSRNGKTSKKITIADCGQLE
KRAS G12C, sequence (P01116 1-188 isoform P01116-2 G12C): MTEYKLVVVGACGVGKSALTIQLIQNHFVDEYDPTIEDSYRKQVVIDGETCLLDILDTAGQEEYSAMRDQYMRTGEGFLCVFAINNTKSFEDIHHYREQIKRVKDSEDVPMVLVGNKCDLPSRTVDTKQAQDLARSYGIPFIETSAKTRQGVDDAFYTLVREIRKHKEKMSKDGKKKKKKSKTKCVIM
KRAS G12C, sequence (P62937 whole entry): as the sequence (P62937 whole entry) above
KRAS G13C, sequence (P01116 1-188 isoform P01116-2 G13C): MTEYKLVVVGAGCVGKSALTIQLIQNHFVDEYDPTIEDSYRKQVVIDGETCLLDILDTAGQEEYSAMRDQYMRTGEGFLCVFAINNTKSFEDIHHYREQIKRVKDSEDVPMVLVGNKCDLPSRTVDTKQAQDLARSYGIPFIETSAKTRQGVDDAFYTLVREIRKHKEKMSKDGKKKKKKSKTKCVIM
KRAS G13C, sequence (P62937 whole entry): as the sequence (P62937 whole entry) above
NRAS Q61K, sequence (P01111 whole entry Q61K): as the sequence (P01111 whole entry Q61R) above, with R61K counted along it
NRAS Q61K, sequence (P62937 whole entry): as the sequence (P62937 whole entry) above
NRAS G12C, sequence (P01111 whole entry G12C): as the sequence (P01111 whole entry Q61R) above, with G12C, R61Q counted along it
NRAS G12C, sequence (P62937 whole entry): as the sequence (P62937 whole entry) above
KRAS G12V, sequence (P01116 1-188 isoform P01116-2 G12V): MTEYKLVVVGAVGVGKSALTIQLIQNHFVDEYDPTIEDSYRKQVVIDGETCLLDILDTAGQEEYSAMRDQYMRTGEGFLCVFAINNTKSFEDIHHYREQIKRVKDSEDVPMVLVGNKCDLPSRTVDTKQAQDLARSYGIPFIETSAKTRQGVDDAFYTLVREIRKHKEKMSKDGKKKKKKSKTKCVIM
KRAS G12V, sequence (P62937 whole entry): as the sequence (P62937 whole entry) above

- IC50 (KRAS G12C): < 10 nM
- IC50 (NRAS G12C): < 10 nM
SMILES: CCn1c(-c2cccnc2[C@H](C)OC)c2c3cc(ccc31)-c1cc(O)cc(c1)C[C@H](NC(=O)[C@H](C(C)C)N(C)C(=O)[C@@H]1C[C@@H]1O)C(=O)N1CCC[C@H](N1)C(=O)OCC(C)(C)C2 (atropisomer, axis not shown) [Compound A323]

- IC50 (KRAS G13C): < 10 nM
SMILES: CCn1c(-c2cccnc2[C@H](C)OC)c2c3cc(ccc31)-c1cc(O)cc(c1)C[C@H](NC(=O)[C@H](C(C)C)N(C)C(=O)[C@H]1CCN(C(=O)C(C)(C)NC)C1)C(=O)N1CCC[C@H](N1)C(=O)OCC(C)(C)C2 (atropisomer, axis not shown) [Compound A381]

SMILES: CC(C)[Si](Oc1cc2cc(c1)-c1ccc3[nH]c(I)c(c3c1)CC(C)(C)COC(=O)[C@@H]1CCCN(N1)C(=O)[C@@H](NC(=O)OC(C)(C)C)C2)(C(C)C)C(C)C
- ring closure, yield of all isomers (from CC(C)[Si](Oc1cc(C[C@H](NC(=O)OC(C)(C)C)C(=O)N2CCC[C@@H](C(=O)O)N2)cc(-c2ccc3[nH]c(I)c(CC(C)(C)CO)c3c2)c1)(C(C)C)C(C)C, ester bond, EDCl/HOBt/DIPEA, DCM, 22.8 mM, 25.0 °C, 16.0 h): 50%

SMILES: CCn1c(-c2cccnc2[C@H](C)OC)c2c3cc(ccc31)-c1csc(n1)C[C@H](NC(=O)OC(C)(C)C)C(=O)N1CC[C@H](C)[C@H](N1)C(=O)OCC(C)(C)C2
- ring closure, yield of all isomers (from CCn1c(-c2cccnc2[C@H](C)OC)c(CC(C)(C)COC(=O)[C@H]2NN(C(=O)[C@H](Cc3nc(Br)cs3)NC(=O)OC(C)(C)C)CC[C@@H]2C)c2cc(B3OC(C)(C)C(C)(C)O3)ccc21, cc_pd bond, Pd(DTBpf)Cl2, K3PO4, dioxane, 17.5 mM, 60.0 °C, 1.0 h): 44.7%

- IC50 (NCI-H358 (K-Ras G12C)): < 10 nM
- IC50 (NRAS Q61R): 10 to 100 nM
SMILES: CCn1c(-c2cc(N3CCN(C)CC3)cnc2[C@H](C)OC)c2c3cc(ccc31)-c1csc(n1)C[C@H](NC(=O)[C@H](C1CCCC1)N(C)C(=O)[C@@H]1OCC[C@@H]1c1ccccc1)C(=O)N1CCC[C@H](N1)C(=O)OCC(C)(C)C2 (atropisomer, axis not shown) [Compound A593]
- IC50 (Capan-1 (K-Ras G12V)): < 10 nM

- IC50 (NCI-H358 (K-Ras G12C)): < 10 nM
- IC50 (NRAS Q61K): 10 to 100 nM
- IC50 (NRAS Q61R): 10 to 100 nM
SMILES: CCn1c(-c2cc(N3CCN(C)CC3)cnc2[C@H](C)OC)c2c3cc(ccc31)-c1csc(n1)C[C@H](NC(=O)[C@H](C(C)C)N(C)C(=O)[C@@H]1OCC[C@@H]1c1ccncc1)C(=O)N1CCC[C@H](N1)C(=O)OCC(C)(C)C2 (atropisomer, axis not shown) [Compound A450]
- IC50 (Capan-1 (K-Ras G12V)): < 10 nM

SMILES: C=CC(=O)N1CCN(c2nc(=O)n(-c3c(C)ccnc3C(C)C)c3nc(-c4c(O)cccc4F)c(F)cc23)[C@@H](C)C1 [AMG510]
- sensitivity of SWi573 to inhibitor (SWi573): insensitive

SMILES: CCn1c(-c2cc(N3CCN(C(=O)OCc4ccccc4)CC3)cnc2[C@H](C)OC)c2c3cc(ccc31)-c1csc(n1)C[C@H](NC(=O)OC(C)(C)C)C(=O)N1CCC[C@H](N1)C(=O)OCC(C)(C)C2
- ring closure, yield of all isomers (from CCn1c(-c2cc(N3CCN(C(=O)OCc4ccccc4)CC3)cnc2[C@H](C)OC)c(CC(C)(C)CO)c2cc(-c3csc(C[C@H](NC(=O)OC(C)(C)C)C(=O)N4CCC[C@@H](C(=O)O)N4)n3)ccc21, ester bond, EDCl/HOBt/DIPEA, MeCN, 10.34 mM, 25.0 °C, 16.0 h): 54.8%

SMILES: Cc1nc(N2CCC3(CC2)CO[C@@H](C)[C@H]3N)c(CO)nc1-c1cccc(Cl)c1Cl [RMC-4550]
- TGI [1]: 39%

- IC50 (KRAS G12C): < 10 nM
- IC50 (KRAS G13C): < 10 nM
- IC50 (KRAS G12V): < 10 nM
- IC50 (NCI-H358 (K-Ras G12C)): < 10 nM
- IC50 (NRAS G12C): < 10 nM
SMILES: CCn1c(-c2cccnc2[C@H](C)OC)c2c3cc(ccc31)-c1cc(O)cc(c1)C[C@H](NC(=O)[C@H](C(C)C)N(C)C(=O)[C@@H]1CN(C(=O)OC)C[C@@H]1C)C(=O)N1CCC[C@H](N1)C(=O)OCC(C)(C)C2 (atropisomer, axis not shown) [Compound A325]

SMILES: CCn1c(-c2cc(N3CCN(C)CC3)cnc2[C@H](C)OC)c2c3cc(ccc31)-c1csc(n1)C[C@H](NC(=O)[C@H](C(C)C)N(C)C(=O)N1CC(C3COC3)C1)C(=O)N1CCC[C@H](N1)C(=O)OCC(C)(C)C2 (atropisomer, axis not shown) [Compound A465]
- IC50 (Capan-1 (K-Ras G12V)): < 10 nM
- IC50 (NCI-H358 (K-Ras G12C)): < 10 nM
- IC50 (NRAS Q61K): 10 to 100 nM
- IC50 (NRAS Q61R): 10 to 100 nM

SMILES: CCn1c(-c2cccnc2[C@H](C)OC)c2c3cc(ccc31)-c1csc(n1)[C@@H](OC)[C@H](N(Cc1ccccc1)Cc1ccccc1)C(=O)N1CCC[C@H](N1)C(=O)OCC(C)(C)C2
- ring closure, yield of all isomers (from CCn1c(-c2cccnc2[C@H](C)OC)c(CC(C)(C)COC(=O)[C@@H]2CCCN(C(=O)[C@H]([C@H](OC)c3nc(Br)cs3)N(Cc3ccccc3)Cc3ccccc3)N2)c2cc(B3OC(C)(C)C(C)(C)O3)ccc21, cc_pd bond, Pd(DtBPF)Cl2, dioxane, 40.0 mM, 80.0 °C, 2.0 h): 44.4%
